#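 Dose response: 5 concentrations. Exposure: 48 h. Format: 96-well plates. Endpoint: linear interpolation; highest concentration if not reached. TGI: concentration producing complete growth inhibition.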
# Experiments:
# Test in all cases: growth of human tumour cells (NCI), 48 h
# [1] = test system: SW-620 colon
# [2] = test system: HOP-62 NSCLC
# [3] = test system: TK-10 renal
# [4] = test system: SK-MEL-28 melanoma
# [5] = test system: K-562 leukemia
# [6] = test system: HCT-15 colon
# [7] = test system: EKVX NSCLC
# [8] = test system: MDA-MB-435
# [9] = test system: HCT-116 colon
# [10] = test system: BT-549 breast
smiles,measurement,setting,value
COC(CN(C=O)[C@@H](c1ccc(Cl)cc1)c1cc2ccccc2o1)OC,TGI,[1],31.4 µM
same,TGI,[2],43.5 µM
same,TGI,[3],33.4 µM
same,TGI,[4],34.5 µM
same,TGI,[5],53.6 µM
same,TGI,[6],32.8 µM
same,TGI,[7],34.4 µM
same,TGI,[8],35.5 µM
same,TGI,[9],32.9 µM
C1=CC(=[N+]2N=C(c3ccccc3)CC2c2ccccc2)C=CC1=C1SC(c2ccccc2)(c2ccccc2)c2ccccc21 (stereo not drawn),TGI,[1],> 100 µM
same,TGI,[10],> 100 µM
same,TGI,[2],> 100 µM
same,TGI,[3],> 100 µM
same,TGI,[4],> 100 µM
same,TGI,[5],> 100 µM
same,TGI,[6],> 100 µM
same,TGI,[7],> 100 µM
same,TGI,[8],> 100 µM
same,TGI,[9],> 100 µM
O=[N+]([O-])c1ccc2c(c1)nc(Cc1ccc(Cl)cc1)n2C[C@@H]1CCCN2CCCCC12 (stereo partly drawn),TGI,[1],> 59 µM
same,TGI,[10],27.1 µM
same,TGI,[2],48.9 µM
same,TGI,[3],39.9 µM
same,TGI,[4],30.1 µM
same,TGI,[5],> 54.1 µM
same,TGI,[6],37.8 µM
same,TGI,[7],> 41.2 µM
same,TGI,[8],28.3 µM
same,TGI,[9],23.3 µM
O=C1/C(=C\c2ccc(F)cc2)CCOc2c1ccc1ccccc21,TGI,[1],> 100 µM
same,TGI,[10],77.3 µM
same,TGI,[2],63.8 µM
same,TGI,[3],60.7 µM
same,TGI,[4],> 71.1 µM
same,TGI,[5],> 31.1 µM
same,TGI,[6],> 100 µM
same,TGI,[7],> 100 µM
same,TGI,[8],74.3 µM
same,TGI,[9],10.7 µM
COc1cc2c(cc1OCCCCCCCCN1C(=O)c3cccc4cccc(c34)C1=O)N=C[C@@H]1CCCN1C2=O,TGI,[1],> 100 µM
same,TGI,[10],35.1 µM
same,TGI,[2],> 100 µM
same,TGI,[3],> 100 µM
same,TGI,[4],37.9 µM
same,TGI,[5],23.1 µM
same,TGI,[6],32.7 µM
same,TGI,[7],35.7 µM
same,TGI,[8],51.7 µM
same,TGI,[9],> 100 µM
COC(=S)OC1CC(n2cnc3c(N)ncnc32)OC1CO[Si](C)(C)C(C)(C)C (stereo not drawn),TGI,[1],> 100 µM
same,TGI,[10],64.1 µM
same,TGI,[2],32.8 µM
same,TGI,[3],> 100 µM
same,TGI,[4],96.7 µM
same,TGI,[5],> 100 µM
same,TGI,[6],49.8 µM
same,TGI,[8],42.1 µM
same,TGI,[9],31.3 µM
CCCSc1ccc2[nH]c(N3C(=O)/C(=C/c4cc(OC)c(OC)c(OC)c4)N=C3c3ccccc3)cc2c1,TGI,[1],> 37.5 µM
same,TGI,[10],37.4 µM
same,TGI,[2],> 19.2 µM
same,TGI,[3],> 37.5 µM
same,TGI,[4],> 37.5 µM
same,TGI,[5],> 35.3 µM
same,TGI,[6],> 37.5 µM
same,TGI,[7],> 37.5 µM
same,TGI,[8],16 µM
same,TGI,[9],> 37.5 µM
CSCCC(NC(=O)OCc1ccccc1)P(=O)(O)c1ccccc1 (stereo not drawn),TGI,[1],> 100 µM
same,TGI,[2],> 100 µM
same,TGI,[3],> 100 µM
same,TGI,[4],> 100 µM
same,TGI,[5],> 100 µM
same,TGI,[6],> 100 µM
same,TGI,[8],> 100 µM
same,TGI,[9],> 100 µM
CC(=O)c1ccc2c(c1)N(CCCN1CCN(CCO)CC1)c1ccccc1C2,TGI,[1],31.3 µM
same,TGI,[10],28.1 µM
same,TGI,[2],30.3 µM
same,TGI,[3],29.1 µM
same,TGI,[4],23.8 µM
same,TGI,[5],30.1 µM
same,TGI,[6],28.8 µM
same,TGI,[7],33.6 µM
same,TGI,[8],21.7 µM
same,TGI,[9],30.5 µM
Cc1ccccc1NC(=O)CC(=O)N1N=C(N2c3ccccc3Sc3ccccc32)CC1c1ccccc1 (stereo not drawn),TGI,[1],> 100 µM
same,TGI,[2],> 100 µM
same,TGI,[3],> 100 µM
same,TGI,[4],> 100 µM
same,TGI,[6],> 100 µM
same,TGI,[7],> 100 µM
same,TGI,[9],> 100 µM
O=C1CC2(CCC(O)(c3cccs3)C(C(=O)c3cccs3)C2)C(=O)c2ccccc2N1 (stereo not drawn),TGI,[1],> 100 µM
same,TGI,[10],> 100 µM
same,TGI,[2],> 100 µM
same,TGI,[3],> 100 µM
same,TGI,[5],> 100 µM
same,TGI,[6],> 100 µM
same,TGI,[7],> 100 µM
same,TGI,[8],> 100 µM
same,TGI,[9],> 100 µM
CC(=O)Oc1ccc(CO)cc1OC(C)=O,TGI,[1],> 100 µM
same,TGI,[2],> 100 µM
same,TGI,[3],> 100 µM
same,TGI,[4],> 100 µM
same,TGI,[5],> 100 µM
same,TGI,[6],> 100 µM
same,TGI,[7],> 100 µM
same,TGI,[9],> 100 µM
O=c1[nH]c(Nc2ccc(Cl)cc2)nc2nc[nH]c12,TGI,[1],> 100 µM
same,TGI,[10],> 100 µM
same,TGI,[2],> 100 µM
same,TGI,[3],> 100 µM
same,TGI,[4],> 100 µM
same,TGI,[6],> 100 µM
same,TGI,[7],> 100 µM
same,TGI,[8],> 100 µM
same,TGI,[9],> 100 µM
COc1ccc(C(=O)N(C(=O)N2CCN(c3ccccc3)CC2)S(=O)(=O)c2ccccc2)cc1,TGI,[1],> 100 µM
same,TGI,[10],> 100 µM
same,TGI,[2],> 100 µM
same,TGI,[3],> 100 µM
same,TGI,[4],> 100 µM
same,TGI,[5],94.4 µM
same,TGI,[6],> 100 µM
same,TGI,[7],50.4 µM
same,TGI,[8],> 100 µM
same,TGI,[9],42.1 µM
CC(C)(C)[Si](C)(C)OCC1OC(n2cnc3c(N)ncnc32)CC1OS(C)(=O)=O (stereo not drawn),TGI,[1],> 100 µM
same,TGI,[10],> 100 µM
same,TGI,[2],> 100 µM
same,TGI,[3],> 100 µM
same,TGI,[4],> 100 µM
same,TGI,[5],> 100 µM
same,TGI,[6],> 100 µM
same,TGI,[8],> 100 µM
same,TGI,[9],> 100 µM
O=S(=O)(O)c1cc(N=[N+]([O-])c2cc(S(=O)(=O)O)c3ccccc3c2)cc2ccccc12,TGI,[1],> 100 µM
same,TGI,[10],39 µM
same,TGI,[2],> 100 µM
same,TGI,[3],> 100 µM
same,TGI,[4],> 100 µM
same,TGI,[5],> 100 µM
same,TGI,[6],> 100 µM
same,TGI,[7],> 100 µM
same,TGI,[8],> 100 µM
same,TGI,[9],> 100 µM

# Reference: PubChem BioAssay (NCI)
